Assay results published in ChEMBL document CHEMBL5223174, “Design, synthesis, and biological evaluation of novel N-Benzyl piperidine derivatives as potent HDAC/AChE inhibitors for Alzheimer's disease” (Bioorg Med Chem, 2023).

Tests used:
Histone deacetylase = format: cell-based, Homo sapiens; conditions: hela
Description: Inhibition of HDAC in human HeLa cell extracts

Cholinesterase = Cholinesterase (Equus caballus, UniProt P81908); assay: Inhibition of equine serum BChE; format: cell-free
Acetylcholinesterase = Acetylcholinesterase (Electrophorus electricus, UniProt O42275); assay: Inhibition of electric eel AChE
[1] = Selectivity index, ratio of IC50 for equine serum BChE to IC50 for electric eel AChE

Cholinesterase, sequence (P81908 whole entry): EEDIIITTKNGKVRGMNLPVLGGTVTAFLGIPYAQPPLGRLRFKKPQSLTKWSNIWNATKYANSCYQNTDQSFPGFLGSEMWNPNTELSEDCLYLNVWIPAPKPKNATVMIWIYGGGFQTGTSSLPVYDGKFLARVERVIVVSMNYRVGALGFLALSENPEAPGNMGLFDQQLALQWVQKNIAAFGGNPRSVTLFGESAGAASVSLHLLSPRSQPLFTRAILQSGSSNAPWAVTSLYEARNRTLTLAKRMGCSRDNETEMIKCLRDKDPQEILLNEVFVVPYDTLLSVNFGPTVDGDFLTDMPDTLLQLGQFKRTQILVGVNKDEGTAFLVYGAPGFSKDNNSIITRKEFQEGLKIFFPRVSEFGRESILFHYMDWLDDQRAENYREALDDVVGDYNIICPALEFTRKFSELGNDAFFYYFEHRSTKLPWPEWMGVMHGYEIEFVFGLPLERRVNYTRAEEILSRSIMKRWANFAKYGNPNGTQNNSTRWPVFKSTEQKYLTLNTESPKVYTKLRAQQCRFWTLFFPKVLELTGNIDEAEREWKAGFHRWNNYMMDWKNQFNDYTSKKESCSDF
Acetylcholinesterase, sequence (O42275 whole entry): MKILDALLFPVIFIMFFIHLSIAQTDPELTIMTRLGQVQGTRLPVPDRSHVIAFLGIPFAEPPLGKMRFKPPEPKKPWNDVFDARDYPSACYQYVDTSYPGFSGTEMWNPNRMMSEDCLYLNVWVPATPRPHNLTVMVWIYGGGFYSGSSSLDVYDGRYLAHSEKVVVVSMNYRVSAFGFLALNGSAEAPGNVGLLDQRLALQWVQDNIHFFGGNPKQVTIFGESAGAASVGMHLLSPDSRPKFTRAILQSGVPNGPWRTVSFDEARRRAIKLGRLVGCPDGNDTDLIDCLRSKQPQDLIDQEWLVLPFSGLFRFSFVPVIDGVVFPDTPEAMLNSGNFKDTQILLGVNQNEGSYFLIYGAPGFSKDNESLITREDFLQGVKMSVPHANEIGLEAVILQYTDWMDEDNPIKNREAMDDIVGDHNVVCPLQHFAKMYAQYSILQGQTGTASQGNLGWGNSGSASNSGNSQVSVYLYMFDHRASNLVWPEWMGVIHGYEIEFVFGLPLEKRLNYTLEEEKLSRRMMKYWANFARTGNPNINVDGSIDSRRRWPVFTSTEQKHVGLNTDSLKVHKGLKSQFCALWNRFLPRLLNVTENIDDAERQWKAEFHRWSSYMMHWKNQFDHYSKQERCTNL

SMILES	IC50 (Histone deacetylase)	IC50 (Cholinesterase; read-out: IC50)	IC50 (Acetylcholinesterase; read-out: IC50)	IC50 (Cholinesterase)	Ratio IC50 [1]	IC50 (Acetylcholinesterase)
Nc1ccccc1NC(=O)CCc1ccc(C(=O)NCC2CCN(Cc3ccccc3)CC2)cc1	0.46 µM	13.4 µM	9.13 µM			
COc1cc(/C=C/C(=O)NO)ccc1C(=O)NCC1CCN(Cc2ccccc2)CC1	0.02 µM	25.2 µM	24.6 µM			
Nc1ccccc1NC(=O)CCc1cccc(C(=O)NCC2CCN(Cc3ccccc3)CC2)c1	1.2 µM	9.49 µM	9.97 µM			
Nc1ccccc1NC(=O)/C=C/c1ccc(C(=O)NCC2CCN(Cc3ccccc3)CC2)cc1	0.18 µM		13.8 µM	Not Active		
Nc1ccccc1NC(=O)c1cccc(C(=O)NCC2CCN(Cc3ccccc3)CC2)c1	2.13 µM	7.96 µM	32.6 µM			
O=C(/C=C/c1cccc(C(=O)NCC2CCN(Cc3ccccc3)CC2)c1)NO	0.067 µM		14.6 µM	Not Active		
O=C(NO)c1ccc(S(=O)(=O)NCC2CCN(Cc3ccccc3)CC2)cc1	0.45 µM		3.22 µM	Not Active	> 10	
Nc1ccccc1NC(=O)CCCCCCC(=O)NCC1CCN(Cc2ccccc2)CC1	> 10 µM			Not Active		Not Active
Nc1ccccc1NC(=O)c1ccc(CNCC2CCN(Cc3ccccc3)CC2)cc1	> 10 µM	12.6 µM	9.84 µM			
Nc1ccccc1NC(=O)c1ccc(/C=C/C(=O)NCC2CCN(Cc3ccccc3)CC2)cc1	> 10 µM	15.6 µM	2.12 µM		> 10	
Nc1ccccc1NC(=O)CCCCCC(=O)NCC1CCN(Cc2ccccc2)CC1	> 10 µM	6.19 µM	7.06 µM			
Nc1ccccc1NC(=O)c1ccc(S(=O)(=O)NCC2CCN(Cc3ccccc3)CC2)cc1	> 10 µM		0.49 µM	Not Active	> 102	
O=C(CCc1ccc(C(=O)NO)cc1)NCC1CCN(Cc2ccccc2)CC1	> 10 µM			Not Active		Not Active
Nc1ccccc1NC(=O)/C=C/c1cccc(C(=O)NCC2CCN(Cc3ccccc3)CC2)c1	1.62 µM			Not Active		Not Active
COc1cc(/C=C/C(=O)Nc2ccccc2N)ccc1C(=O)NCC1CCN(Cc2ccccc2)CC1	1.25 µM	6.56 µM	8.89 µM			
Nc1ccccc1NC(=O)c1cccc(S(=O)(=O)NCC2CCN(Cc3ccccc3)CC2)c1	1.28 µM	5.23 µM	7.41 µM			

SMILES	IC50 (Histone deacetylase)	IC50 (Cholinesterase; read-out: IC50)	IC50 (Acetylcholinesterase; read-out: IC50)	IC50 (Cholinesterase)	Ratio IC50 [1]	IC50 (Acetylcholinesterase)
Nc1ccccc1NC(=O)CCCCCCCC(=O)NCC1CCN(Cc2ccccc2)CC1	1.14 µM	13.8 µM	11.5 µM			
O=C(CCc1cccc(C(=O)NCC2CCN(Cc3ccccc3)CC2)c1)NO	0.47 µM			Not Active		Not Active
O=C(/C=C/c1ccc(C(=O)NCC2CCN(Cc3ccccc3)CC2)cc1)NO	0.28 µM		8.18 µM	Not Active	> 10	
Nc1ccccc1NC(=O)c1ccc(CCC(=O)NCC2CCN(Cc3ccccc3)CC2)cc1	> 10 µM		12.4 µM	Not Active		
O=C(NO)c1ccc(C(=O)NCC2CCN(Cc3ccccc3)CC2)cc1	0.14 µM	3.28 µM	39.7 µM			
O=C(CCCCCCCC(=O)NCC1CCN(Cc2ccccc2)CC1)NO	0.43 µM	13.7 µM	26.2 µM			
COc1cc(CCC(=O)Nc2ccccc2N)ccc1C(=O)NCC1CCN(Cc2ccccc2)CC1	> 10 µM	10.6 µM	31.3 µM			
O=C(CCc1ccc(C(=O)NCC2CCN(Cc3ccccc3)CC2)cc1)NO	1 µM			Not Active		Not Active
O=C(CCCCCC(=O)NCC1CCN(Cc2ccccc2)CC1)NO	> 10 µM		32.8 µM	Not Active		
COc1cc(CCC(=O)NO)ccc1C(=O)NCC1CCN(Cc2ccccc2)CC1	0.17 µM		6.89 µM	Not Active	> 10	
O=C(NO)c1cccc(C(=O)NCC2CCN(Cc3ccccc3)CC2)c1	0.8 µM			Not Active		Not Active
O=C(/C=C/c1ccc(C(=O)NO)cc1)NCC1CCN(Cc2ccccc2)CC1	2.1 µM		4.07 µM	Not Active	> 10	
O=C(NO)c1ccc(CNCC2CCN(Cc3ccccc3)CC2)cc1	1.42 µM	13.2 µM	6.03 µM			
O=C(NO)c1cccc(S(=O)(=O)NCC2CCN(Cc3ccccc3)CC2)c1	6.8 µM		19.2 µM	Not Active		
O=C(CCCCCCC(=O)NCC1CCN(Cc2ccccc2)CC1)NO	0.59 µM	1.62 µM				Not Active
